Laboratory results taken from patent US12338262B2 (Forward Therapeutics, Inc., priority 2022, dated 2025).

These compounds were tested against TNF-α (Homo sapiens, UniProt P01375) (assay: TNF-α Induced HEK Blue Cellular Assay). Details: HEK Blue TNFα reporter cells, TNF-α 100 pg/ml, 24 hrs at 37° C., secreted alkaline phosphatase (QUANTI-Blue, 620 nm).
Format: cell-based
Procedure: TNF-α Induced HEK Bluet Cellular Assay
Test articles were diluted in DMSO and serially diluted into 384 well assay plate (Corning 3765), at final concentrations ranging from […] to 0.5 nM. HEK Blue™ TNFα reporter cells were added at a final density of 10,000 cell per well in assay media [DMEM (Gibco, cat #21063-029), 10% fetal bovine serum (ExcelBio, cat #FND500), 1% Penicillin-Streptomycin (Solarbio, cat #P1400-100]. TNF-α (R&D 210-TA-020/CF) was then added to the assay plate at a final concentration of 100 pg/ml. This plate was then incubated for 24 hrs at 37° C. and 5% CO2. Secreted alkaline phosphatase expression was then measured using QUANTI-Blue™ (Invivogen), according to manufacturer instructions and read on an Envision microplate reader at 620 nm.
Inhibition data for test compound over a range of concentration was plotted as percentage inhibition of the test compound (100%=maximum inhibition). IC50 values were determined after correcting for background [(sample read-mean of low control)/(mean of high control-mean of low control)] where by the low control is DMSO without stimulation and high control is DMSO with stimulation. The IC50 is defined as the concentration of test compound which produces 50% inhibition and was quantified using the 4 parameter logistic equation to fit the data.

Sequence of TNF-α (P01375 77-233 limits assumed): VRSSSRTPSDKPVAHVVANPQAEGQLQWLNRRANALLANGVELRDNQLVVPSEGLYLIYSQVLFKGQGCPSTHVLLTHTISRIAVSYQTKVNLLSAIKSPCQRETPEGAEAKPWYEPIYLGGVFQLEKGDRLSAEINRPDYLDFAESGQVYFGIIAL

Compared with `Cc1nc2cc(F)c(-c3ccc(P(C)(C)=O)nc3)nc2c(N[C@@H](c2ccccc2F)C(F)F)c1Cl` (single isomer, unassigned) [Example 25], `Cc1nc2cc(F)c(-c3ccc(P(C)(C)=O)nc3)nc2c(N[C@@H](c2cccc(F)c2F)C(F)F)c1Cl` (single isomer, unassigned) [Example 145] is higher in IC50: ≤ 100 nM for the first, 10000 to 30000 nM for the second. The first is the more potent here.

`CC[P@](C)(=O)c1ccc(-c2nc3c(N[C@H](C)c4cc(C#N)ccc4F)c(Cl)c(C)nc3cc2F)cn1` (single isomer, unassigned) [Example 58] and `Cc1nc2cc(F)c(-c3ccc(P(C)(C)=O)nc3)nc2c(N[C@H](C)c2cc(C#N)ccc2F)c1Cl` [Example 2, 3-[(1R)-1-({3-chloro-6-[6-(dimethylphosphoryl)pyridin-3-yl]-7-fluoro-2-methyl-1,5-naphthyridin-4-yl}amino)ethyl]-4-fluorobenzonitrile] cannot be ordered by IC50: ≤ 100 nM for the first, ≤ 100 nM for the second.

`Cc1nc2cc(F)c(-c3ccc(P(C)(C)=O)nc3)nc2c(N[C@H](CO)c2cc(C#N)ccc2F)c1Cl` (single isomer, unassigned) [Example 63] and `Cc1nc2cc(F)c(-c3ccc(P(C)(C)=O)nc3)nc2c(N[C@@H](CO)c2cc(C#N)ccc2F)c1Cl` (single isomer, unassigned) [Example 64] fall in the same range of IC50: 10000 to 30000 nM for the first, 10000 to 30000 nM for the second.

`Cc1nc2cc(F)c(-c3ccc(P(C)(C)=O)nc3)cc2c(N[C@H](C)c2cncnc2)c1Cl` (single isomer, unassigned) [Example 100] and `Cc1nc2cc(F)c(-c3ccc(P(C)(C)=O)nc3)cc2c(N[C@@H](C)c2cncnc2)c1Cl` (single isomer, unassigned) [Example 101] fall in the same range of IC50: 10000 to 30000 nM for the first, 10000 to 30000 nM for the second.

`Cc1nc2cc(F)c(-c3ccc(P(C)(C)=O)nc3)nc2c(N[C@H](C)c2ccc(F)c(F)c2F)c1Cl` (single isomer, unassigned) [Example 109] and `Cc1nc2cc(F)c(-c3ccc(P(C)(C)=O)nc3)nc2c(N[C@@H](C)c2ccc(F)c(F)c2F)c1Cl` (single isomer, unassigned) [Example 110] cannot be ordered by IC50: ≤ 100 nM for the first, ≤ 100 nM for the second.

First: Cc1nc2cc(F)c(-c3ccc(P(C)(C)=O)nc3)nc2c(N[C@H](C)c2ncccc2F)c1Cl (single isomer, unassigned) [Example 116]
Second: Cc1nc2cc(F)c(-c3ccc(P(C)(C)=O)nc3)nc2c(N[C@@H](C)c2ncccc2F)c1Cl (single isomer, unassigned) [Example 117]
The IC50 of the first is lower: ≤ 100 nM for the first, 1000 to 10000 nM for the second.

`Cc1nc2cc(F)c(-c3cnc(P(C)(C)=O)nc3)nc2c(N[C@H](C)c2cc(C#N)ccc2F)c1Cl` [Example 1, 3-[(1R)-1-({3-chloro-6-[2-(dimethylphosphoryl)pyrimidin-5-yl]-7-fluoro-2-methyl-1,5-naphthyridin-4-yl}amino)ethyl]-4-fluorobenzonitrile] and `Cc1nc2cc(F)c(-c3ccc(P(C)(C)=O)cc3)nc2c(N[C@H](C)c2cc(C#N)ccc2F)c1Cl` [Example 3, 3-[(1R)-1-({3-chloro-6-[4-(dimethylphosphoryl)phenyl]-7-fluoro-2-methyl-1,5-naphthyridin-4-yl}amino)ethyl]-4-fluorobenzonitrile] cannot be ordered by IC50: ≤ 100 nM for the first, ≤ 100 nM for the second.

`CC[C@@H](Nc1c(Cl)c(C)nc2cc(F)c(-c3ccc(P(C)(C)=O)c(F)c3)nc12)c1ncccc1F` [Example 4, 3-chloro-6-[4-(dimethylphosphoryl)-3-fluorophenyl]-7-fluoro-N-[(1R)-1-(3-fluoropyridin-2-yl)propyl]-2-methyl-1,5-naphthyridin-4-amine] and `Cc1nc2ccc(-c3cnc(P(C)(C)=O)nc3)cc2c(N[C@H](C)c2cc(C#N)ccc2F)c1Cl` [Example 6, 3-[(1R)-1-({3-chloro-6-[2-(dimethylphosphoryl)pyrimidin-5-yl]-2-methylquinolin-4-yl}amino)ethyl]-4-fluorobenzonitrile] cannot be ordered by IC50: ≤ 1000 nM for the first, ≤ 1000 nM for the second.

For `Cc1nc2ccc(-c3ccc(P(C)(C)=O)nc3)cc2c(N[C@H](C)c2cc(C#N)ccc2F)c1Cl` [Example 5, 3-[(1R)-1-({3-chloro-6-[6-(dimethylphosphoryl)pyridin-3-yl]-2-methylquinolin-4-yl}amino)ethyl]-4-fluorobenzonitrile], the IC50 was ≤ 100 nM.
